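A five-concentration, 48-hour dose response in 96-well plates underlies each endpoint, interpolated linearly between surrounding concentrations. GI50 marks 50% less growth. TGI marks complete inhibition of growth.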
How the values were obtained:
Assay in all cases: inhibition of tumour cell growth, NCI panel, 48 h
LOX IMVI melanoma = system: LOX IMVI melanoma
CCRF-CEM leukemia = system: CCRF-CEM leukemia
SR leukemia = system: SR leukemia
OVCAR-5 ovarian = system: OVCAR-5 ovarian
UACC-257 melanoma = system: UACC-257 melanoma
COLO 205 colon = system: COLO 205 colon
A549 NSCLC = system: A549 NSCLC
OVCAR-8 ovarian = system: OVCAR-8 ovarian
MOLT-4 leukemia = system: MOLT-4 leukemia
HT29 colon = system: HT29 colon
UACC-62 melanoma = system: UACC-62 melanoma

Row | Compound | TGI (LOX IMVI melanoma) | TGI (CCRF-CEM leukemia) | TGI (SR leukemia) | TGI (OVCAR-5 ovarian) | TGI (UACC-257 melanoma) | TGI (COLO 205 colon) | TGI (A549 NSCLC) | TGI (OVCAR-8 ovarian) | TGI (MOLT-4 leukemia) | TGI (HT29 colon) | TGI (UACC-62 melanoma) | GI50 (CCRF-CEM leukemia) | GI50 (SR leukemia) | GI50 (UACC-257 melanoma) | GI50 (COLO 205 colon) | GI50 (OVCAR-8 ovarian) | GI50 (MOLT-4 leukemia) | GI50 (HT29 colon) | GI50 (UACC-62 melanoma)
1 | COC(=O)[C@H](COC(C)(C)C)NC(=O)N[C@H](C)c1ccccc1 | > 100 µM | > 100 µM | > 100 µM | > 100 µM | > 100 µM | > 100 µM | > 100 µM | > 100 µM | > 100 µM | > 100 µM | > 100 µM | – | – | – | – | – | – | – | –
2 | O=C(c1ccccc1)C(Nc1ccc2ccccc2c1)c1ccccc1 (stereo not drawn) | > 100 µM | 51.2 µM | > 71.8 µM | > 100 µM | 48.2 µM | 33.7 µM | > 100 µM | > 100 µM | > 75.6 µM | > 100 µM | > 100 µM | – | – | – | – | – | – | – | –
3 | Cc1ccc(SCC(CF)OC(C)n2cnc3c(Cl)nc(N)nc32)cc1 (stereo not drawn) | > 100 µM | > 100 µM | > 100 µM | > 100 µM | > 100 µM | > 100 µM | > 100 µM | > 100 µM | > 100 µM | > 100 µM | > 100 µM | – | – | – | – | – | – | – | –
4 | O=C(CCc1ccc(O)c(O)c1)NCCc1cc(O)c(O)c(O)c1 | 31.7 µM | > 100 µM | > 100 µM | > 100 µM | > 100 µM | > 100 µM | 54.2 µM | 36.2 µM | 46.5 µM | 35.4 µM | > 100 µM | – | – | – | – | – | – | – | –
5 | Cc1cccc2c1c(=O)c1c(O)cc3c(c1n2C)C=CC(C)(C)O3 | > 100 µM | > 100 µM | > 100 µM | > 100 µM | > 100 µM | > 100 µM | > 100 µM | > 100 µM | > 100 µM | > 100 µM | > 100 µM | – | – | – | – | – | – | – | –
6 | O=C1CCCCC1C(O)(C(F)(F)F)C(F)(F)Cl (stereo not drawn) | > 10 µM | > 10 µM | > 10 µM | > 10 µM | > 10 µM | > 10 µM | > 10 µM | > 10 µM | > 10 µM | > 10 µM | > 10 µM | – | – | – | – | – | – | – | –
7 | CCCCCCCC(CC(=O)NC(CO)C(=O)NC(CO)CC(C)C)OC(=O)CC(CCCCCCC)OC(=O)CC(CCCCCCC)OC1OC(C)C(O)C(OC2OC(C)C(O)C(O)C2O)C1O (stereo not drawn) | 17.7 µM | 15 µM | 15.9 µM | 26 µM | 26.6 µM | 22.8 µM | 31.7 µM | 34.4 µM | 28.2 µM | 21.8 µM | 27.9 µM | – | – | – | – | – | – | – | –
8 | C/C(=C\CNc1ncnc2c1ncn2CCC(=O)OC(C)(C)C)CO | > 100 µM | > 100 µM | > 100 µM | > 100 µM | > 100 µM | > 100 µM | > 100 µM | > 100 µM | > 100 µM | > 100 µM | > 100 µM | – | – | – | – | – | – | – | –
9 | CCN(CC)C(=S)N/N=C/c1cc(OC)ccc1O | 12.5 µM | 5.71 µM | 8.9 µM | > 100 µM | > 100 µM | > 100 µM | > 100 µM | > 100 µM | 28.6 µM | > 100 µM | 21.6 µM | – | – | – | – | – | – | – | –
10 | CCOC(=O)C1=CNC(C(=O)OCC)C1c1cccn1-c1ccccc1 (stereo not drawn) | 31 µM | 77 µM | 55.3 µM | > 100 µM | > 100 µM | 68.2 µM | > 100 µM | > 100 µM | 47.3 µM | 50.5 µM | > 100 µM | – | – | – | – | – | – | – | –
11 | COc1cc(/C=C/C(=O)c2ccc(F)cc2)ccc1OCCCCCOc1cc2c(cc1OC)C(=O)N1CCCC1C=N2 (stereo not drawn) | – | 0.0258 µM | < 0.0113 µM | – | 1.17 µM | 0.043 µM | – | 3.28 µM | 0.0418 µM | 1.48 µM | 0.222 µM | < 0.01 µM | < 0.01 µM | 0.238 µM | < 0.0151 µM | 0.0253 µM | < 0.01 µM | < 0.016 µM | 0.0582 µM
12 | CCCCCCCc1cscc1-c1cscc1Br | 36.4 µM | 40.3 µM | 41.3 µM | 89.4 µM | > 100 µM | 35.6 µM | > 100 µM | > 100 µM | 42.3 µM | – | > 100 µM | – | – | – | – | – | – | – | –
13 | NC(Cc1ccccc1)c1nn[nH]n1 (stereo not drawn) | > 100 µM | > 100 µM | > 100 µM | > 100 µM | > 100 µM | > 100 µM | > 100 µM | > 100 µM | – | > 100 µM | > 100 µM | – | – | – | – | – | – | – | –
14 | O=C1C=CC(=O)c2cc(Sc3ccccc3)c(=O)c(Sc3ccccc3)cc21 | > 100 µM | 60.9 µM | > 100 µM | – | > 100 µM | > 100 µM | > 100 µM | > 100 µM | > 100 µM | > 100 µM | 81.6 µM | – | – | – | – | – | – | – | –
15 | COCC12CCC(OC)C34C5CC6(O)C(OC)C=C(C5C6OC(=O)c5ccccc5)C(C(OC)C13)C4N(C)C2 (stereo not drawn) | > 100 µM | > 100 µM | > 100 µM | > 100 µM | > 100 µM | > 100 µM | > 100 µM | > 100 µM | – | > 100 µM | > 100 µM | – | – | – | – | – | – | – | –
16 | O=C(Oc1c(Br)cc(Br)cc1C(=O)Oc1ccccc1)C(=O)Oc1c(Br)cc(Br)cc1C(=O)Oc1ccccc1 | – | – | 56.1 µM | 89.9 µM | > 100 µM | 51.8 µM | 73.8 µM | > 100 µM | 55.1 µM | > 100 µM | > 100 µM | – | – | – | – | – | – | – | –
17 | CCP(=O)(CC)C(Cl)(Cl)C(O)C(Cl)(Cl)Cl (stereo not drawn) | > 100 µM | > 100 µM | > 100 µM | > 100 µM | > 100 µM | > 100 µM | > 100 µM | > 100 µM | > 100 µM | > 100 µM | – | – | – | – | – | – | – | – | –
18 | CSC1=C(C#N)C(=O)N(c2ccc(C)cc2)C(=O)C1C#N (stereo not drawn) | > 100 µM | > 100 µM | > 100 µM | > 100 µM | > 100 µM | > 100 µM | > 100 µM | – | > 100 µM | > 100 µM | > 100 µM | – | – | – | – | – | – | – | –
19 | O=C1CCCC2=C1CC1=C(CCCC1=O)N2c1ccc([N+](=O)[O-])cc1 | > 100 µM | > 100 µM | > 100 µM | > 100 µM | – | – | > 100 µM | > 100 µM | > 100 µM | > 100 µM | > 100 µM | – | – | – | – | – | – | – | –
20 | Oc1c(Cl)c(Cl)c(O)c(CCNc2nccs2)c1Cl | – | > 100 µM | 25.6 µM | 39 µM | 58.7 µM | 57.9 µM | 49.8 µM | 47.2 µM | 94.3 µM | 51.8 µM | 40.5 µM | – | – | – | – | – | – | – | –
21 | Cc1cc(C)c(NC(=O)/C=C/c2ccccc2)c(C)c1 | – | > 100 µM | > 100 µM | > 100 µM | > 100 µM | – | > 100 µM | > 100 µM | > 100 µM | > 100 µM | 93.8 µM | – | – | – | – | – | – | – | –

Reference: PubChem BioAssay (NCI)
